Test results as given in PMC4212957, “The serodominant secreted effector protein of Salmonella, SseB, is a strong CD4 antigen containing an immunodominant epitope presented by diverse HLA class II alleles” (Immunology, 2014).

Key:
[1] = system: HLA-DR heterodimers; test: Breadth of binding across the HLA-DR panel; parameters: species or system human; details: of nine HLA-DR molecules screened; competitive ELISA
Description: HLA-DR heterodimers were purified from homozygous Epstein–Barr virus B-lymphoblastoid cell lines (HPA Culture Collections, Salisbury, UK) by affinity chromatography with the monomorphic HLA-DRα monoclonal antibody, L243.[29],[30] Binding of the SseB peptide panel to the HLA-DR molecules HLA-DRB1*01:01, 03:01, 04:01, 07:01, 09:01, 11:01, 12:02, 15:01, 15:02 was assessed by competitive ELISA, as previously described, using an automated workstation.[29],[30] We evaluated the peptide concentration able to prevent binding of 50% of the labelled peptide (IC50). Data were expressed as relative affinity: ratio of the IC50 of the peptide to the IC50 of the reference peptide, which is a high binder to the HLA class II molecule. Unlabelled forms of the biotinylated peptides were used as reference peptides.
The HLA-DR peptide-binding assay used here was designed to give a strong coverage of commonly expressed alleles across diverse populations. For example, the DR1, 3, 4, 7, 11 and 1501 heterodimers cumulatively cover approximately 80% of individuals in Caucasian populations, whereas DR9, DR1202 and DR1502 are rare in Caucasian populations but are found in around a third of individuals in many South East Asian populations. Of the 18 peptides encompassing the SseB overlapping peptide library, 15 show significant HLA-DR binding (Table2). Eight peptides were able to bind specifically to only one or two alleles, but the seven other binders were able to bind more heterodimers. It is noteworthy that there are three peptides, p2, p11 and p18, with the property of binding 6, 7 and 8 different HLA-DR heterodimers, respectively. They span HLA-DRB sequences with rather diverse peptide-binding pockets.

[2] = system: PBMCs; test: Human IFN-γ ELISpot; format: cell-based; details: 50 μg/ml peptide, 2 × 10^5 PBMCs, 24 hr; both cohorts; positive if > 2 SD above no-peptide/protein control
Description: CD4 T cell responses to SseB were analysed in peripheral blood mononuclear cell (PBMC) samples from healthy control donors with no reported clinical history of Salmonella infection and from donors who had been experimentally challenged with S. Typhi 12 months previously as described elsewhere.[28] Healthy control blood samples were collected with informed consent, under the approval of Ethics REC reference number 08/H0707/173. The S. Typhi challenge participants were recruited by the Oxford Vaccine Group, University of Oxford and the study was performed at the Centre for Clinical Vaccinology and Tropical Medicine, Oxford. Ethics approval was obtained from the NRES Committee South Central – Oxford A (11/SC/0302). Written, informed consent was provided by all participants. A pre-determined bacterial dose (10^4 colony-forming units) of challenge agent (Quailes strain) was delivered by oral ingestion suspended in a sodium bicarbonate solution.[28] Study exclusion criteria included previous typhoid vaccination, residence in a typhoid endemic country for over 6 months and known diagnosis of a probably or confirmed typhoid infection. Blood samples were collected and PBMCs were purified by Lymphoprep density gradient separation.
Human IFN-γ ELISpot assays were run using reagents from Mabtech (Stockholm, Sweden). Briefly, 2 × 10^5 thawed PBMCs were incubated in pre-coated human IFN-γ ELISpot plates, in triplicate, with 50 μg/ml of SseB peptide or recombinant protein (25 μg/ml) in RPMI-1640 medium containing 2 mM L-glutamine, 50 U/ml penicillin G, 50 μg/ml streptomycin sulphate and 10% fetal calf serum. […] Developed plates were left to dry before spot counting using an AID ELISpot reader (Autoimmun Diagnostika GMBH, Straßberg, Germany). […] To better define HLA restriction, human donor ELISpot responses were also analysed in the presence of HLA class II blocking monoclonal antibodies at a final concentration of 25 μg/ml: L243 (anti-HLA-DRα), SPVL-3 (anti-HLA-DQ), B7/21 (anti-HLA-DP) and control mouse IgG. […]

[3] = molecular target: HLA-DRB1*07:01 (Homo sapiens, UniProt P01903+P01911, A100R/A102G/A103Q/D57E/D86V/E43K/F76Y/K127E/L162R/M171V/P40G/Q125H/Q99D/R33Q/R42Y/R54Q/S133A/S66F/T210M/V115G/Y107V/Y59L/Y89S); details: competitive ELISA; ratio IC50 of peptide / IC50 of reference peptide HA 306–318; lower = higher affinity; ratio 20 or less high, 20–100 moderate; three independent experiments

Row | Substance | number of different HLA-DR heterodimers bound [1] | human CD4 T-cell IFN-γ ELISpot response to peptide [2] | Relative binding affinity of peptide to HLA-DR molecules DRB1*0701 [3]
1 | 2: SseB overlapping library peptide, residues 11–30 (QNPIVFKNSFGVSNADTGSQ) [Peptide 2] | 6 | largest and most common peptide responses | 14
2 | 11: SseB overlapping library peptide, residues 101–120 (EDVIKYMRDNGILIDGMTID) [Peptide 11] | 7 | largest and most common peptide responses | 2
3 | AVLTQLTGLISKWGEISSMIAQKTYS [Peptide 18] | 8 | less frequent among the epitopes recognized | 12
